Measurements from patent US11744818B2, “Application of trans-1,3-dilinolein in the preparation of medicaments for treating gastric cancer, stomachic tonic, health products and foods” (Lanzhou University, priority 2021, dated 2023).

How the values were obtained:
[1] = tested on: human gastric mucosal epithelial cell line GES-1; experiment: Proliferation of GES-1 cells (CCK8, 48 hours); format: cell-based; settings: for effect on the proliferation of GES-1: 25 μM to 400 μm, 48 hours
Experimental: (§1) At 37° C. and 5% CO2, human gastric cancer cell line HGC-27 cells and human gastric mucosal epithelial cell line GES-1 cells (coming from China Center for Type Culture Collection (Wuhan, China)) are respectively cultured in RPMI Medium Modified (Hyclone, SH30809.01) and Dulbecco's Modified Eagle's Medium-high glucose (Sigma, D6429), in which 10% fetal calf serum (Gibco, 10270-106) and 1% penicillin-streptomycin (Gibco, 15140-122) are supplemented.
The cytotoxicity of GES-1 cells by trans-1,3-dilinolein is determined. 10000 cells are plated in a 96-well plate, and each well is added with 100 μL medium. 12 hours after cell attachment, each well is given 100 μL normal medium that contained different concentrations (0 μM, 6.25 μM, 12.5 μM, 25 μM, 50 μM, 100 μM, 200 μM, 400 μM, 800 μM, 1000 μM) of trans-1,3-dilinolein and had been preheated, and cultured in incubators under the conditions of 5% CO2, 37° C., normal oxygen and 1% oxygen respectively for 48 hours. The medium in each well is drawn, and serum-free medium is added into each well to formulate 60 μL CCK8 (ABMole BioScience) at 1/11 the initial concentration, which are correspondingly incubated in incubators under the conditions of 5% CO2, 37° C., normal oxygen and 1% oxygen for 40 minutes. The absorbance at 450 nm is determined with a microplate reader (Thermo Scientific).
(§2) Two-side Student's t-test is conducted by using EXCEL to determine the statistical significance of two groups of measurements. P value<0.05 is considered to be statistically significant. Unless otherwise specified, all data are expressed as mean ±standard deviation.

[2] = tested on: human gastric cancer cell line HGC-27; experiment: Cytotoxicity to HGC-27 cells (MTS, 48 hours); format: cell-based; settings: for killing of gastric cancer cells: concentration of 300 μm and more; for killing effect on HGC-27: 0-500 μM, 48 hours
Experimental: as §1
The cytotoxicity of HGC-27 cells by trans-1,3-dilinolein is determined. 5000 cells are plated in a 96-well plate, and each well is added with 100 μL medium. 12 hours after cell attachment, each well is given 100 μL normal medium that contained different concentrations (0 μM, 50 μM, 100 μM, 200 μM, 300 μM, 400 μM, 500 μM) of trans-1,3-dilinolein and had been preheated, and cultured in incubators under the conditions of 5% CO2, 37° C., normal oxygen and 1% oxygen respectively for 48 hours. The medium in each well is drawn, and serum-free medium is added into each well to formulate 60 μL MTS (Promega) at ⅙ the initial concentration, which are correspondingly incubated in incubators under the conditions of 5% CO2, 37° C., normal oxygen and 1% oxygen for 2 hours. The absorbance at 490 nm is determined with a microplate reader (Thermo Scientific).
as §2

SMILES: CCCCC/C=C/C/C=C/CCCCCCCC(=O)OCC(O)COC(=O)CCCCCCC/C=C/C/C=C/CCCCC [trans-1,3-dilinolein, [2-hydroxy-3-[(9E,12E)-octadeca-9,12-dienoyl]oxypropyl](9E,12E)-octadeca-9,12-dienoate]
- proliferation of normal gastric mucosal epithelial cells ([1]; concentration of 300 μm and more): significantly promote the proliferation
- effect on the proliferation of GES-1 ([1]; hypoxic (1% oxygen), FIG. 4B): promotion effects on the proliferation
- effect on the proliferation of GES-1 ([1]; normal oxygen, FIG. 4A): promotion effects on the proliferation
- killing of gastric cancer cells ([2]; hypoxic conditions compared with normal oxygen): the killing effect is more significant
- killing of gastric cancer cells ([2]; normal oxygen): kills gastric cancer cells significantly
- killing effect on HGC-27 ([2]; hypoxic (1% oxygen) compared with normal oxygen, FIG. 4D): stronger killing effect
- killing effect on HGC-27 ([2]; normal oxygen, FIG. 4C): concentration-dependent killing effect
